Measurements: patent US9206191B2, “Indazoles for the treatment and prophylaxis of respiratory syncytial virus infection” (Hoffmann-La Roche Inc., priority 2012, dated 2015)

System: RSV Long strain
Experiment: Viral Cytopathic Effect (CPE) Assay
Type: cell-based
Conditions: human respiratory syncytial virus, 144 h, cell viability after 6 days, Cell Counting kit-8

EC50 | SMILES
188 nM | CS(=O)(=O)c1nn(Cc2nc3cc(Cl)ccc3n2[C@@H]2CCN(CC(F)(F)F)C2)c2cnccc12 [Example 2-20, 1-({5-Chloro-1-[(3R)-1-(2,2,2-trifluoroethyl)pyrrolidin-3-yl]-1H-benzimidazol-2-yl}methyl)-3-(methylsulfonyl)-1H-pyrazolo[3,4-c]pyridine]
6 nM | CS(=O)(=O)c1nn(Cc2nc3cc(Cl)ccc3n2CCC2COC2)c2cnccc12 [Example 2-23, 1-({5-Chloro-1-[2-(oxetan-3-yl)ethyl]-1H-benzimidazol-2-yl}methyl)-3-(methylsulfonyl)-1H-pyrazolo[3,4-c]pyridine]
8.66 nM | CS(=O)(=O)c1nn(Cc2nc3cc(Cl)ccc3n2C2CC3(COC3)C2)c2cnccc12 [Example 2-24, 1-{[5-Chloro-1-(2-oxaspiro[3.3]hept-6-yl)-1H-benzimidazol-2-yl]methyl}-3-(methylsulfonyl)-1H-pyrazolo[3,4-c]pyridine]
6.79 nM | CC1(CCn2c(Cn3nc(S(C)(=O)=O)c4ccncc43)nc3cc(Cl)ccc32)COC1 [Example 2-25, 1-({5-Chloro-1-[2-(3-methyloxetan-3-yl)ethyl]-1H-benzimidazol-2-yl}methyl)-3-(methylsulfonyl)-1H-pyrazolo[3,4-c]pyridine]
7 nM | CS(=O)(=O)c1nn(Cc2nc3cc(Cl)ccc3n2[C@H]2C[C@](C)(O)C2)c2cnccc12 [Example 2-26, trans-3-(5-Chloro-2-{[3-(methylsulfonyl)-1H-pyrazolo[3,4-c]pyridin-1-yl]methyl}-1H-benzimidazol-1-yl)-1-methylcyclobutanol]
7.53 nM | CS(=O)(=O)c1nn(Cc2nc3cc(Cl)ccc3n2CCCO)c2cnccc12 [Example 2-27, 3-(5-Chloro-2-{[3-(methylsulfonyl)-1H-pyrazolo[3,4-c]pyridin-1-yl]methyl}-1H-benzimidazol-1-yl)propan-1-ol]
7.57 nM | CS(=O)(=O)c1nn(Cc2nc3cc(Cl)ccc3n2C2CCOC2)c2cnccc12 (stereo not drawn) [Example 2-28, 1-{[5-Chloro-1-(tetrahydrofuran-3-yl)-1H-benzimidazol-2-yl]methyl}-3-(methylsulfonyl)-1H-pyrazolo[3,4-c]pyridine]
8.04 nM | CC(C)(O)CCn1c(Cn2nc(S(C)(=O)=O)c3ccncc32)nc2cc(Cl)ccc21 [Example 2-29, 4-(5-Chloro-2-{[3-(methylsulfonyl)-1H-pyrazolo[3,4-c]pyridin-1-yl]methyl}-1H-benzimidazol-1-yl)-2-methylbutan-2-ol]
4.81 nM | CS(=O)(=O)c1nn(Cc2nc3cc(Cl)ccc3n2CCCCO)c2cnccc12 [Example 2-30, 4-(5-Chloro-2-{[3-(methylsulfonyl)-1H-pyrazolo[3,4-c]pyridin-1-yl]methyl}-1H-benzimidazol-1-yl)butan-1-ol]
4.34 nM | CS(=O)(=O)c1nn(Cc2nc3cc(Cl)ccc3n2CC2CCOC2)c2cnccc12 (stereo not drawn) [Example 2-31, 1-{[5-Chloro-1-(tetrahydrofuran-3-ylmethyl)-1H-benzimidazol-2-yl]methyl}-3-(methylsulfonyl)-1H-pyrazolo[3,4-c]pyridine]
3.32 nM | CS(=O)(=O)c1nn(Cc2nc3cc(Cl)ccc3n2[C@H]2C[C@H](O)C2)c2cnccc12 [Example 2-32, trans-3-(5-Chloro-2-{[3-(methylsulfonyl)-1H-pyrazolo[3,4-c]pyridin-1-yl]methyl}-1H-benzimidazol-1-yl)cyclobutanol]
9.85 nM | CS(=O)(=O)c1nn(Cc2nc3cc(Cl)ccc3n2[C@H]2C[C@@](C)(O)C2)c2cnccc12 [Example 2-33, cis-3-(5-Chloro-2-{[3-(methylsulfonyl)-1H-pyrazolo[3,4-c]pyridin-1-yl]methyl}-1H-benzimidazol-1-yl)-1-methylcyclobutanol]
8.7 nM | CS(=O)(=O)c1nn(Cc2nc3cc(Cl)ccc3n2CCC2(O)CC2)c2cnccc12 [Example 2-34, 1-[2-(5-Chloro-2-{[3-(methylsulfonyl)-1H-pyrazolo[3,4-c]pyridin-1-yl]methyl}-1H-benzimidazol-1-yl)ethyl]cyclopropanol]
15 nM | CS(=O)(=O)c1nn(Cc2nc3cc(Cl)ccc3n2CCOCCO)c2cnccc12 [Example 2-35, 2-[2-(5-chloro-2-{[3-(methylsulfonyl)-1H-pyrazolo[3,4-c]pyridin-1-yl]methyl}-1H-benzimidazol-1-yl)ethoxy]ethanol]
6 nM | CS(=O)(=O)c1nn(Cc2nc3cc(Cl)ccc3n2[C@H]2CC[C@@](C)(O)CC2)c2cnccc12 [Example 2-37, cis-4-(5-chloro-2-{[3-(methylsulfonyl)-1H-pyrazolo[3,4-c]pyridin-1-yl]methyl}-1H-benzimidazol-1-yl)-1-methylcyclohexanol]
8 nM | CC(C)(O)CCCn1c(Cn2nc(S(C)(=O)=O)c3ccncc32)nc2cc(Cl)ccc21 [Example 2-38, 5-(5-chloro-2-{[3-(methylsulfonyl)-1H-pyrazolo[3,4-c]pyridin-1-yl]methyl}-1H-benzimidazol-1-yl)-2-methylpentan-2-ol]
2 nM | CC(C)(O)[C@H]1C[C@H](n2c(Cn3nc(S(C)(=O)=O)c4ccncc43)nc3cc(Cl)ccc32)C1 [Example 2-39, 2-[trans-3-(5-chloro-2-{[3-(methylsulfonyl)-1H-pyrazolo[3,4-c]pyridin-1-yl]methyl}-1H-benzimidazol-1-yl)cyclobutyl]propan-2-ol]

EC50 | SMILES
7 nM | CS(=O)(=O)c1nn(Cc2nc3cc(Cl)ccc3n2[C@H]2C[C@H](C(=O)O)C2)c2cnccc12 [Example 2-41, trans-3-(5-chloro-2-{[3-(methylsulfonyl)-1H-pyrazolo[3,4-c]pyridin-1-yl]methyl}-1H-benzimidazol-1-yl)cyclobutanecarboxylic acid]
1.6 nM | CS(=O)(=O)c1nn(Cc2nc3cc(Cl)ccc3n2CCC(O)C(F)(F)F)c2cnccc12 (stereo not drawn) [Example 2-42, 4-(5-chloro-2-{[3-(methylsulfonyl)-1H-pyrazolo[3,4-c]pyridin-1-yl]methyl}-1H-benzimidazol-1-yl)-1,1,1-trifluorobutan-2-ol]
3.3 nM | CS(=O)(=O)c1nn(Cc2nc3cc(Cl)ccc3n2CCC(O)C(F)F)c2cnccc12 (stereo not drawn) [Example 2-44, 4-(5-chloro-2-{[3-(methylsulfonyl)-1H-pyrazolo[3,4-c]pyridin-1-yl]methyl}-1H-benzimidazol-1-yl)-1,1-difluorobutan-2-ol]
6.1 nM | CS(=O)(=O)c1nn(Cc2nc3cc(Cl)ccc3n2C2C[C@@H](O)[C@H](O)C2)c2cnccc12 [Example 2-45, trans-4-(5-chloro-2-{[3-(methylsulfonyl)-1H-pyrazolo[3,4-c]pyridin-1-yl]methyl}-1H-benzimidazol-1-yl)cyclopentane-1,2-diol]
7.2 nM | CS(=O)(=O)c1nn(Cc2nc3cc(Cl)ccc3n2[C@H]2C[C@@](O)(CO)C2)c2cnccc12 [Example 2-46, trans-3-(5-chloro-2-{[3-(methylsulfonyl)-1H-pyrazolo[3,4-c]pyridin-1-yl]methyl}-1H-benzimidazol-1-yl)-1-(hydroxymethyl)cyclobutanol]
9.86 nM | CS(=O)(=O)c1nn(Cc2nc3cc(Cl)ccc3n2-c2ccc(F)nc2)c2ccccc12 [Example 3-1, 1-{[5-Chloro-1-(6-fluoropyridin-3-yl)-1H-benzimidazol-2-yl]methyl}-3-(methylsulfonyl)-1H-indazole]
18.7 nM | CS(=O)(=O)c1nn(Cc2nc3cc(Cl)ccc3n2-c2ccc(F)nc2)c2cnccc12 [Example 3-2, 1-{[5-Chloro-1-(6-fluoropyridin-3-yl)-1H-benzimidazol-2-yl]methyl}-3-(methylsulfonyl)-1H-pyrazolo[3,4-c]pyridine]
1540 nM | CS(=O)(=O)c1nn(Cc2nc3cc(Cl)ccc3n2-c2ccc(F)nc2)c2c[n+]([O-])ccc12 [Example 3-3, 1-{[5-Chloro-1-(6-fluoropyridin-3-yl)-1H-benzimidazol-2-yl]methyl}-3-(methylsulfonyl)-1H-pyrazolo[3,4-c]pyridine 6-oxide]
33.5 nM | COc1ccc(-n2c(Cn3nc(S(C)(=O)=O)c4ccccc43)nc3cc(Cl)ccc32)cn1 [Example 3-4, 1-{[5-Chloro-1-(6-methoxypyridin-3-yl)-1H-benzimidazol-2-yl]methyl}-3-(methylsulfonyl)-1H-indazole]
18.1 nM | CS(=O)(=O)c1nn(Cc2nc3cc(Cl)ccc3n2-c2ccc(Cl)nc2)c2ccccc12 [Example 3-5, 1-{[5-Chloro-1-(6-chloropyridin-3-yl)-1H-benzimidazol-2-yl]methyl}-3-(methylsulfonyl)-1H-indazole]
14.6 nM | CS(=O)(=O)c1nn(Cc2nc3cc(Cl)ccc3n2CCCC(F)(F)F)c2ccccc12 [Example 4-1, 1-{[5-Chloro-1-(4,4,4-trifluorobutyl)-1H-benzimidazol-2-yl]methyl}-3-(methylsulfonyl)-1H-indazole]
15.9 nM | CS(=O)(=O)c1nn(Cc2nc3cc(Cl)ccc3n2CCCC(F)(F)F)c2c[n+]([O-])ccc12 [Example 4-2, 1-{[5-Chloro-1-(4,4,4-trifluorobutyl)-1H-benzimidazol-2-yl]methyl}-3-(methylsulfonyl)-1H-pyrazolo[3,4-c]pyridine 6-oxide]
17 nM | CS(=O)(=O)c1nn(Cc2nc3cc(Cl)cc(F)c3n2CCC(F)(F)F)c2cnccc12 [Example 5-1, 1-{[5-Chloro-7-fluoro-1-(3,3,3-trifluoropropyl)-1H-benzimidazol-2-yl]methyl}-3-(methylsulfonyl)-1H-pyrazolo[3,4-c]pyridine]
7 nM | CS(=O)(=O)c1nn(Cc2nc3cc(Cl)cc(F)c3n2CCCC(F)(F)F)c2cnccc12 [Example 5-2, 1-{[5-Chloro-7-fluoro-1-(4,4,4-trifluorobutyl)-1H-benzimidazol-2-yl]methyl}-3-(methylsulfonyl)-1H-pyrazolo[3,4-c]pyridine]
7 nM | CC(=O)N1CC[C@@H](n2c(Cn3nc(S(C)(=O)=O)c4ccncc43)nc3cc(Cl)ccc32)C1 [Example 6-1, 1-[(3R)-3-(5-Chloro-2-{[3-(methylsulfonyl)-1H-pyrazolo[3,4-c]pyridin-1-yl]methyl}-1H-benzimidazol-1-yl)pyrrolidin-1-yl]ethanone]
8.75 nM | CC(=O)N1CCC(n2c(Cn3nc(S(C)(=O)=O)c4ccccc43)nc3cc(Cl)ccc32)C1 (stereo not drawn) [Example 6-2, 1-[3-(5-Chloro-2-{[3-(methylsulfonyl)-1H-indazol-1-yl]methyl}-1H-benzimidazol-1-yl)pyrrolidin-1-yl]ethanone]
